These results are taken from patent US20230416258A1, “BENZ[…], AND PREPARATION METHOD THEREFOR AND USE THEREOF” (CHINA PHARMACEUTICAL UNIVERSITY, priority 2020, published 2023).

Broadly, the EC50 is the concentration that produces a half-maximal response.

One data set concerns KM mice. As to the kind of experiment: Test for drug-induced disappearance of righting reflex in mice. Type of data set: in vivo. The note with it: single rapid bolus via tail vein. The method, boiled down: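 Female KM mice (18–25 g), randomly grouped, given a single rapid bolus via tail vein. Latency (administration to loss of righting reflex) and duration (loss to recovery) recorded.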

Data set [1] concerns SD rats. Nature of the data set: Test for drug-induced disappearance of righting reflex in rats. The data set is classed as in vivo. The note with it: single rapid bolus via tail vein. From the text:
In anesthetic drug experiments, latency generally refers to the time from the start of administration to the loss of consciousness of the subject. The shorter latency is preferred, indicating a rapid onset of action after administration. The duration of anesthesia generally refers to the duration of time from the loss of consciousness to the restoration of consciousness of the subject. The duration of the drug will vary from animal model to animal species. Too long anesthesia may produce adverse cardiovascular and respiratory responses, such as adverse neurological effects to the subject, including sleepiness and dizziness; meanwhile, too short duration of anesthesia may affect the anesthesia effect, causing problems such as increase of anesthesia dosage during the operation.
SD rats (male, 200-280 g) were randomly grouped and subjected to a single administration by rapid bolus via the tail vein. The latency and duration of righting reflex in the rats were recorded.

Data set [2] has as its system SD rats. Nature of the data set: Induction of anesthesia in rats by continuous infusion of drug for 20 min. Type of data set: in vivo. The note with it: initial dose 20 mg/kg bolus, maintenance dose 0.2 (mg/kg)/min for 20 min, after infusion completed. The method, then:
SD rats (male, 200-280 g) were randomly grouped and subjected to administration of an initial dose by rapid bolus via the tail vein, followed by a continuous infusion with a maintenance dose for 20 min.
After the infusion was completed, the duration of the righting reflex and the time from wake-up to recovery in rats were recorded.

For data set [3], the system named is GABA-activated Cl− current (GABAA receptor) in HEK 293T cells. As to the kind of experiment: Effect of drugs on GABA-activated current in cells by cell patch clamp. Type of data set: cell-based. Particulars: for Enhancement percentage Emax for 2 μM GABA current (within 3-30 μM): corresponding concentration 20 μM. The method, then: Test compounds were dissolved at various concentrations in an extracellular buffer (140 mM NaCl, 4.7 mM KCl, 10 mM HEPES, 2 mM CaCl2), 10 mM glucose, 1 mM MgCl2, pH 7.4). HEK 293T cells were seeded on glass coverslips and cultured in DMEM media at 37° C. with 5% CO2 for 24 h. GABA Cl^− current was subjected to whole cell recording using an HEKA EPC 10USB patch clamp amplifier. 2 μM GABA was used for exciting Cl^− current, with the membrane potential clamped at −60 mV. The cells were treated with the test compound and 2 μM GABA simultaneously, and the induction effect on and Emax of Cl^− current in the same cell were recorded.
Maximum enhancement percentage Emax for 2 μM GABA current and corresponding concentration (μM): 100% for normal humans. The greater the percentage, the lower the corresponding concentration, and the greater the depth of anesthesia.
For orientation: The patch-clamp technique gives a direct electrical read-out from membranes.

The subject of a further data set is hCMEC/D3 cells. Nature of the data set: Rate of drug passing through in vitro blood-brain barrier (Transwell). Type of data set: in vitro ADME. The note with it: hCMEC/D3 monolayer, compound 0.1 mg/mL. The method, then: A Transwell device (pore size: 5.0 μm) was placed in a 24-well cell culture well; then hCMEC/D3 cells at 1×10^5 cells/mL were transferred to the upper microwells of Transwell at 150 μL/well, and cell culture medium was added to the lower microwells. After the bottom was covered by a single layer of the cells, the medium in the wells was replaced with EBM-2 complete medium containing 1% FBS, and the cells were cultured in a CO2 incubator for 10 days until a fully dense single layer of the cells was formed. When a fully dense single layer of the cells was formed, the compound at 0.1 mg/mL was added to the lower medium, and after 5 min, the concentration of the compound in the upper medium was measured to calculate the permeability:
Pcompound%=Cupper compound/Clower compound×100%

Where [4] appears, read: read-out: Positive enhancement EC50 (μM) for 2 μM GABA-induced current, −60 mV.
[5] abbreviates: 2 μM GABA, −60 mV, read-out: Positive enhancement EC50 (μM) for 2 μM GABA-induced current.

Like-named read-outs stand apart in the source and are kept apart here.

In the data set on KM mice (30 mg/kg), `COC(=O)CC[C@@H]1N=C(c2ccccc2Cl)c2cc(Cl)ccc2-n2c(Sc3cn(C)cn3)nnc21` [Compound 141, methyl (S)-3-(8-chloro-6-(2-chlorophenyl)-1-((1-methyl-1H-imidazol-4-yl)thio)-4H-benzo[f][1,2,4]triazolo[4,3-a][1,4]diazepin-4-yl)propionate] showed a Duration of 8.76 min and a Latency of 0.74 min. The same molecule registered a Latency in the data set on SD rats [1] of 0.21 min. For the same molecule, in the data set on SD rats [2], the Duration of anesthesia amounted to 13.21 min and the “Time from wake-up to recovery” value stood at 22.19 min. Further, in data set [3] (setting [4]), the EC50 amounted to 0.61 µM. Besides, the “Enhancement percentage Emax for 2 μM GABA current (within 3-30 μM)” value (from here on “Enhancement percentage Emax”) in data set [3] (−60 mV) was 295% (20 μM). In addition, the “In vitro blood-brain barrier, compound permeability at 5 min” value (from here on “In vitro blood-brain barrier”) with hCMEC/D3 cells came to 76.6%.

In the data set on KM mice (60 mg/kg), `COC(=O)CC[C@@H]1N=C(c2ccccc2Cl)c2cc(Br)ccc2-n2c(SC)nnc21` [Compound 24, methyl (S)-3-(8-bromo-6-(2-chlorophenyl)-1-(methylthio)-4H-benzo[f][1,2,4]triazolo[4,3-a][1,4]diazepin-4-yl)propionate] yielded a Duration of 6.83 min and a Latency of 0.24 min. Besides, in the data set with SD rats [1], the Latency is given as 0.28 min. For the same molecule, in the data set with SD rats [2], the Duration of anesthesia came to 15.6 min and the “Time from wake-up to recovery” value was found to be 22.3 min. Besides, the EC50 in data set [3] (setting [4]) came out at 0.48 µM. Also, the “Enhancement percentage Emax” value in data set [3] (−60 mV) is 282% (20 μM). Further, the “In vitro blood-brain barrier” value with hCMEC/D3 cells worked out at 73.4%.

In the case of `CCSc1nnc2n1-c1ccc(Cl)cc1C(c1ccccc1Cl)=N[C@H]2CCC(=O)OC` [Compound 26, methyl (S)-3-(8-chloro-6-(2-chlorophenyl)-1-(ethylthio)-4H-benzo[f][1,2,4]triazolo[4,3-a][1,4]diazepin-4-yl)propionate], in the data set on KM mice (30 mg/kg), the Duration turned out to be 3.57 min and the Latency was determined as 1.5 min. Further, in the data set with KM mice (60 mg/kg), the Duration turned out to be 8.06 min and the Latency turned out to be 0.18 min. Besides, the Latency in the data set with SD rats [1] worked out at 0.36 min. Besides, in the data set with SD rats [2], the Duration of anesthesia amounted to 8.22 min and the “Time from wake-up to recovery” value was 9.46 min. In addition, in data set [3] (setting [4]), the EC50 came out at 0.71 µM. Moreover, the “Enhancement percentage Emax” value in data set [3] (−60 mV) is recorded as 249% (20 μM). In addition, the “In vitro blood-brain barrier” value with hCMEC/D3 cells is recorded as 52.8%.

Turning to `COC(=O)CC[C@@H]1N=C(c2ccccc2Cl)c2cc([N+](=O)[O-])ccc2-n2c(SC)nnc21` [Compound 25, methyl (S)-3-(8-nitro-6-(2-chlorophenyl)-1-(methylthio)-4H-benzo[f][1,2,4]triazolo[4,3-a][1,4]diazepin-4-yl)propionate], in the data set with KM mice (60 mg/kg), the Duration turned out to be 5.89 min and the Latency came to 0.31 min. Besides, the Latency in the data set with SD rats [1] is 0.45 min. Moreover, in the data set on SD rats [2], the Duration of anesthesia stood at 7.35 min and the “Time from wake-up to recovery” value was 10.2 min. Besides, the EC50 in data set [3] (setting [4]) amounted to 0.64 µM. Further, the “Enhancement percentage Emax” value in data set [3] (−60 mV) is given as 242% (20 μM). In the data set on hCMEC/D3 cells, the “In vitro blood-brain barrier” value came out at 81.5%.

In the data set on KM mice (30 mg/kg), `COC(=O)CC[C@@H]1N=C(c2ccccc2F)c2cc(Br)ccc2-n2c1n[nH]c2=S` [Tautomer of compound 4, methyl (S)-3-(8-bromo-6-(2-fluorophenyl)-1-thio-2,4-dihydro-1H-benzo[f][1,2,4]triazolo[4,3-a][1,4]diazepin-4-yl) propionate] yielded a Duration of 2.95 min and a Latency of 0.38 min. Also, in the data set on SD rats [1], the Duration was 15.4 min and the Latency is listed as 0.48 min. For the same molecule, in the data set on SD rats [2], the Duration of anesthesia stood at 4.84 min and the “Time from wake-up to recovery” value worked out at 10.3 min. The EC50 in data set [3] (setting [5]) came out at 0.65 µM. Further, in data set [3] (−60 mV), the “Enhancement percentage Emax” value is 238% (20 μM). In addition, the “In vitro blood-brain barrier” value in the data set on hCMEC/D3 cells is on record as 75.8%.

For `COC(=O)CC[C@@H]1N=C(c2ccccc2Cl)c2cc([N+](=O)[O-])ccc2-n2c(SCCN)nnc21` [Compound 37, methyl (S)-3-(8-nitro-6-(2-chlorophenyl)-1-((2-aminoethyl)thio)-4H-benzo[f][1,2,4]triazolo[4,3-a][1,4]diazepin-4-yl) propionate], the Duration with KM mice (30 mg/kg) is reported as 7.63 min; in the data set with KM mice (60 mg/kg), 7.68 min; in the data set on SD rats [1] it was 25.1 min. The Latency in the data set with KM mice (30 mg/kg) turned out to be 0.49 min; with KM mice (60 mg/kg), 0.21 min; in the data set on SD rats [1] it was 0.22 min. Besides, the Duration of anesthesia with SD rats [2] amounted to 6.68 min. In addition, the “Time from wake-up to recovery” value in the data set with SD rats [2] came to 10.5 min. In data set [3] (setting [5]), the EC50 came to 0.53 µM. Also, the “Enhancement percentage Emax” value in data set [3] (−60 mV) is 267% (20 μM). Moreover, the “In vitro blood-brain barrier” value with hCMEC/D3 cells is on record as 84.6%.

In the data set with KM mice (30 mg/kg), `COC(=O)CC[C@@H]1N=C(c2ccccc2Cl)c2cc(Cl)ccc2-n2c(SCC(=O)N3CCN(C)CC3)nnc21` [Compound 129, methyl (S)-3-(8-chloro-6-(2-chlorophenyl)-1-((2-(4-methylpiperazin-1-yl)2-oxyethyl)thio)-4H-benzo[f][1,2,4]triazolo[4,3-a][1,4]diazepin-4-yl)propionate] returned a Duration of 13.27 min and a Latency of 0.56 min. In the data set with SD rats [1], this molecule returned a Duration of 17.28 min and a Latency of 0.37 min. Besides, in the data set with SD rats [2], the Duration of anesthesia is 10.22 min and the “Time from wake-up to recovery” value is recorded as 17.7 min. Also, the EC50 in data set [3] (setting [5]) was found to be 0.42 µM. In addition, the “Enhancement percentage Emax” value in data set [3] (−60 mV) is recorded as 257% (20 μM). Further, the “In vitro blood-brain barrier” value in the data set on hCMEC/D3 cells was 75.9%.

With `COC(=O)CC[C@@H]1N=C(c2ccccc2Cl)c2cc([N+](=O)[O-])ccc2-n2c(SCCO)nnc21` [Compound 34, methyl (S)-3-(8-nitro-6-(2-chlorophenyl)-1-((2-hydroxyethyl)thio)-4H-benzo[f][1,2,4]triazolo[4,3-a][1,4]diazepin-4-yl)propionate], in the data set with KM mice (30 mg/kg), the Duration was 21.9 min and the Latency came out at 0.3 min. In the data set with SD rats [1], this molecule returned a Latency of 0.22 min. Moreover, in the data set on SD rats [2], the Duration of anesthesia is given as 48.2 min and the “Time from wake-up to recovery” value came out at 35.6 min. In addition, the EC50 in data set [3] (setting [4]) is 0.38 µM. For the same molecule, the “Enhancement percentage Emax” value in data set [3] (−60 mV) is listed as 302% (20 μM). The “In vitro blood-brain barrier” value with hCMEC/D3 cells is 85.6%.

Turning to `COC(=O)CC[C@@H]1N=C(c2ccccc2F)c2cc([N+](=O)[O-])ccc2-n2c(SC)nnc21` [Compound 10, methyl (S)-3-(8-nitro-6-(2-fluorophenyl)-1-(methylthio)-4H-benzo[f][1,2,4]triazolo[4,3-a][1,4]diazepin-4-yl)propionate], in the data set with KM mice (30 mg/kg), the Duration came out at 3.15 min and the Latency came to 0.76 min. Moreover, the Latency with SD rats [1] is recorded as 0.32 min. Further, in the data set with SD rats [2], the Duration of anesthesia came out at 5.35 min and the “Time from wake-up to recovery” value turned out to be 13.6 min. Besides, the concentration for a half-maximal effect (EC50) in data set [3] (setting [4]) was found to be 0.67 µM. The “Enhancement percentage Emax” value in data set [3] (−60 mV) is given as 202% (20 μM). Further, the “In vitro blood-brain barrier” value in the data set on hCMEC/D3 cells was determined as 58.7%.

In the data set with KM mice (30 mg/kg), `COC(=O)CC[C@@H]1N=C(c2ccccc2F)c2cc(Cl)ccc2-n2c(S)nnc21` [Compound 1, methyl (S)-3-(8-chloro-6-(2-fluorophenyl)-1-mercapto-4H-benzo[f][1,2,4]triazolo[4,3-a][1,4]diazepin-4-yl)propionate] showed a Duration of 3.51 min and a Latency of 0.26 min. The molecule further came in with a Latency in the data set with SD rats [1] of 0.25 min. Besides, in the data set with SD rats [2], the Duration of anesthesia came out at 2.82 min and the “Time from wake-up to recovery” value is reported as 11.2 min. For the same molecule, the EC50 in data set [3] (setting [4]) stood at 0.85 µM. Further, the “Enhancement percentage Emax” value in data set [3] (−60 mV) is given as 216% (20 μM). Further, in the data set with hCMEC/D3 cells, the “In vitro blood-brain barrier” value is listed as 72.2%.
